Reference: PMC7985170, “Marine Peptide-N6NH2 and Its Derivative-GUON6NH2 Have Potent Antimicrobial Activity Against Intracellular Edwardsiella tarda in vitro and in vivo” (Frontiers in Microbiology, 2021)
≈ marks a conversion by molar mass, not a printed value. Where a SMILES comes first, the peptide text is derived from it. Bridges are numbered along the chain shown (N, C = ends).

Key:
E. coli CVCC1515 = format: cell-based, Escherichia coli
Description: (§1) The antimicrobial activity of peptides was determined by the microbroth dilution method ([Zhang et al., 2014]). The bacterial strains were incubated in Mueller-Hinton (MH) medium at 28°C or 37°C overnight. Bacteria (1 × 10^5 CFU/mL) were added into 96-well plates, followed by the addition of serial dilutions of peptides (from 0.0625 to 128 μg/mL). The plates were incubated at 37°C for 18–24 h. The minimal inhibitory concentration (MIC) value was determined as the lowest peptide concentration at which no bacterial growth was observed.

E. coli CVCC25922 = format: cell-based, Escherichia coli
Description: as §1

S. typhimurium ATCC14028 = format: cell-based, Salmonella typhimurium
Description: as §1

[1] = format: cell-based, Streptococcus enteritidis
Description: as §1

Edwardsiella tarda = format: cell-based
Description: as §1

Escherichia coli CVCC195 = format: cell-based
Description: as §1

[2] = test system: Salmonella pullorum CVCC1802; format: cell-based
Description: as §1

[3] = test system: Salmonella typhimurium CVCC533; format: cell-based; settings: murium CVCC533
Description: as §1

[4] = test system: Staphylococcus aureus ATCC43300; format: cell-based
Description: as §1

[5] = test system: Staphylococcus hyicus 437-2; format: cell-based
Description: as §1

S. pullorum CVCC1789 = format: cell-based, Salmonella pullorum
Description: as §1

S. aureus ATCC25923 = format: cell-based, Staphylococcus aureus
Description: as §1

S. aureus ATCC546 = format: cell-based, Staphylococcus aureus
Description: as §1

S. hyicus 15095 = format: cell-based, Staphylococcus hyicus
Description: as §1

[6] = test system: Gram-negative and Gram-positive bacteria (ALL); assay: Geometric mean of MICs and therapeutic index; format: cell-based
Description: as §1
(§2) The geometric mean (GM) of MICs of peptides against Gram-negative and Gram-positive bacteria was calculated, and the result was shown in Table 3. […] For Gram-negative bacteria, the TI value of GUON6NH2 (53.33) was very close to N6NH2 (58.18), while for positive bacteria, the TI value of GUON6NH2 (12.8) was slightly higher than that of N6NH2 (12.31), indicating their huge therapeutic potential. For Gram-positive bacteria, DN6NH2 had the highest TI value and the best therapeutic potential.

Gram-negative bacteria = assay: Geometric mean of MICs and therapeutic index; format: cell-based
Description: as §1, §2

Gram-positive bacteria = assay: Geometric mean of MICs and therapeutic index; format: cell-based
Description: as §1, §2

murine erythrocytes = format: cell-based, mouse
Description: The hemolysis of peptides was evaluated by determining the amount of hemoglobin that was released from fresh mouse erythrocytes ([Flamm et al., 2019]). The blood cells were washed three times with 10 mM PBS (pH 7.4) and centrifuged for 10 min (1,500 rpm). Erythrocyte solution (8%, v/v) was mixed with peptide solutions (1:1) and incubated for 1 h at 37°C. The mixture was then centrifuged for 5 min (1,500 rpm), and the absorbance of supernatants was measured at 540 nm. Values of 0 and 100% hemolysis were determined in PBS and 0.1% triton X-100, respectively. The hemolysis of peptides was calculated using the following formula: Hemolysis (%) = [(Abs treated sample – Abs negative control)/(Abs positive control – Abs negative control)] × 100.

E. tarda [7] = assay: Time-killing curve; format: cell-based, Edwardsiella tarda
Description: Time-killing curve of peptides was performed according to the previous method ([Flamm et al., 2019]). E. tarda was cultured to logarithmic phase, diluted in Mueller Hinton broth (MHB) (1 × 10^5 CFU/mL) containing 1×, 2×, or 4× MIC of peptides, and cultured at 28°C (200 rpm). PBS was added as a control. Bacterial samples (100 μL) were removed at different time intervals (0, 0.5, 1, 1.5, 2, 4, 6, 8, 10, 12, 22, and 24 h) and were counted on MH solid plates. The time-killing curves of peptides were plotted. Bacterial cells treated with 2× MIC norfloxacin and without treatment were used as the positive and blank controls, respectively.

LPS = LPS binding, BODIPY-TR-cadaverine (BC) probe displacement; settings: 0.5 μM LPS, 5 μM BC, Tris buffer pH 7.4; peptides 0.049 to 50 μM
Description: The BODIPY’-TR-cadaverine (BC) probe was used to determine the ability of peptides to bind to LPS ([Wang et al., 2020]). 0.5 μM LPS was incubated with 5 μM BC in […] Tris buffer (pH 7.4) for 4 h at 37°C. Subsequently, the peptides were added into the mixture and the final concentrations of peptides ranged from 0.049 to 50 μM. Ampicillin was used as the negative control. Changes in fluorescence were measured by a fluorescence spectrophotometry at room temperature (excitation/emission, 580/620 nm).

[8] = test system: inner membrane of E. tarda; assay: Inner membrane penetration, PI staining by flow cytometry; format: cell-based, Edwardsiella tarda; settings: 1× MIC, 5–30 min at 37°C, 1 × 10^8 CFU/mL
Description: Mid-log phase E. tarda cells (1 × 10^8 CFU/mL) were incubated with or without 1× MIC peptides solutions at 37°C for 5, 15, and 30 min, respectively. After washing twice with PBS, bacterial cells were then incubated with 50 μg/mL propidium iodide (PI) for 15 min and analyzed using a FACS Calibur Flow Cytometer (BD, United States) ([Stearns-Kurosawa et al., 2011]).

E. tarda [9] = assay: SEM and TEM morphology; format: cell-based, Edwardsiella tarda; settings: 4× MIC, 2 h
Description: To further characterize the bactericidal effects of the peptides, scanning electron microscopy (SEM) and transmission electron microscopy (TEM) were used to visualize morphological changes ([Yang et al., 2019]). E. tarda was cultured to logarithmic growth stage (10^8 CFU/mL) and diluted with 0.01 M PBS (pH 7.4) to OD600 nm = 1. E. tarda cells were treated with 4× MIC peptides at 37°C for 2 h and the untreated cells were used as the control. Briefly, after centrifugation, the bacterial cells were washed three times with 0.1 M PBS (pH 7.2) and fixed overnight at 4°C with 2.5% glutaraldehyde. After washing again, the cells were fixed with 1% osmium tetroxide (OsO4) for 2 h and dehydrated in a graded ethanol series (50%–70%–85%–95% × 2–100%, × 2) for 15 min, respectively. The samples were then dried by CO2, sputtered with gold-palladium, and observed on a QUANTA200 SEM (FEI, Philips, Netherlands).
E. tarda cells were treated peptides before fixation as described above. The bacteria were washed with 0.01 M PBS (pH 7.4) for five times, 7 min each time, and fixed with 1% osmium acid buffer (4°C) for 1 h. After dehydration with a graded acetone series (30%–50%–70%–85%–95%–100% × 3), the cells were immersed in mixtures of acetone and resin (3:1, 1:1 and 1:3, respectively) for 40 min and in a pure epoxy resin overnight. The samples were then embedded in embedding medium and polymerized at 45°C for 3 h and at 65°C for 24 h, respectively. The sections were prepared using an ultramicrotome, stained with 1% uranyl acetate, and visualized by a JEM1400 (JEDL, Tokyo, Japan).

E. tarda [10] = assay: Post-antibiotic effect (PAE); format: cell-based, Edwardsiella tarda; settings: 2 h exposure, E. tarda, 28°C, n = 3
Description: E. tarda cells were incubated with peptides (1×, 2×, or 4× MIC) for 2 h, diluted, and cultured at 28°C and 200 rpm. An aliquot of samples (50 μL) were taken for CFU counts at different time intervals until bacterial cultures became turbid. Bacteria treated with the N6NH2, GUON6NH2 or vancomycin were used as the positive control; bacteria without treatment were used as the blank control. The PAE was calculated using the following formula: PAE = T–C, where T is the time for the CFU counts to increase by 10-fold above the count observed immediately after drug removal, and C is the corresponding time for the untreated control ([Oh et al., 2019]).

E. tarda [11] = assay: Mouse peritonitis model, survival; format: in vivo; settings: 1 μmoL/kg i.p. at 1 h postinfection, ICR mice, 5 days
Description: To establish a peritonitis mouse model, six-week-old female ICR mice (five mice/group) were intraperitoneally injected with E. tarda (1 × 10^9 CFU/mL, 0.5 mL). The infected mice were followed by the intraperitoneal injection of N6NH2, GUON6NH2 or norfloxacin (1 μmol/kg of body weight, 0.2 mL) at 1 h postinfection, respectively. Mice injected with only bacteria or PBS were used as negative or blank controls. The survival of mice was recorded daily for 5 days.

E. tarda [12] = assay: Mouse peritonitis model, bacterial counts in peritoneal fluid; format: in vivo; settings: 1 μmol/kg i.p.
Description: The mice were intraperitoneally infected with E. tarda (1 × 10^9 CFU/mL, 0.5 mL) and then injected with N6NH2 and GUON6NH2 (1 μmol/kg) or PBS (the blank control) in the same way at 1 h after infection. The mice were then killed at 24 h after treatment, and peritoneal fluids were obtained by washing with 5 mL of ice-cold PBS. The total number of E. tarda in the fluids was determined before any further procedures. For intracellular bacteria quantification, the other fraction was centrifuged for 5 min at 4°C (1,000 rpm). The cells were collected, treated with 1,000 μg/mL gentamicin for 30 min at 37°C to kill extracellular bacteria, and washed with ice-cold PBS twice to remove extracellular gentamicin. Subsequently, the cells were lysed and the bacteria were counted as described above for the in vitro experiment ([Kim et al., 2011]).

[13] = therapeutic index (TI), cell selectivity

CC(C)[C@H](N)C(=O)N[C@@H](Cc1ccccc1)C(=O)N[C@@H](C)C(=O)N[C@@H](Cc1c[nH]c2ccccc12)C(=O)N[C@@H](CC(N)=O)C(=O)N[C@H](C(=O)N[C@H]1CSSC[C@@H](C(=O)N[C@@H](Cc2c[nH]cn2)C(=O)N[C@@H](CCCNC(=N)N)C(=O)N[C@@H](CCCNC(=N)N)C(=O)N[C@@H](C)C(=O)N[C@@H](CC(N)=O)C(N)=O)NC(=O)[C@H](C(C)C)NC(=O)[C@H](CCCNC(=N)N)NC(=O)[C@H](C(C)C)NC(=O)[C@H](C(C)C)NC(=O)[C@H](CC(N)=O)NC(=O)[C@H](CCCNC(=N)N)NC(=O)[C@H](Cc2ccc(O)cc2)NC(=O)[C@H](C(C)C)NC1=O)C(C)C [V112N6NH2] (H-VFAWNVCVYRNVVRVCHRRAN-NH2; disulfide 7-16 (inferred); N-terminus assumed)
MIC (E. coli CVCC1515): 4 µg/mL (≈ 1.56 µM) | MIC (E. coli CVCC25922): 8 µg/mL (≈ 3.13 µM) | MIC (S. typhimurium ATCC14028): 16 µg/mL (≈ 6.25 µM) | MIC [1]: 2 µg/mL (≈ 0.782 µM) | MIC (Edwardsiella tarda): 32 µg/mL (≈ 12.5 µM) | MIC (Escherichia coli CVCC195): 8 µg/mL (≈ 3.13 µM) | MIC [2]: 8 µg/mL (≈ 3.13 µM) | MIC [3]: 16 µg/mL (≈ 6.25 µM) | MIC [4]: 32 µg/mL (≈ 12.5 µM) | MIC [5]: 32 µg/mL (≈ 12.5 µM) | MIC (S. pullorum CVCC1789): 16 µg/mL (≈ 6.25 µM) | MIC (S. aureus ATCC25923): 32 µg/mL (≈ 12.5 µM) | MIC (S. aureus ATCC546): 16 µg/mL (≈ 6.25 µM) | MIC (S. hyicus 15095): 16 µg/mL (≈ 6.25 µM) | GM ALL ([6]; geometric mean (GM) of MICs, all strains): 16.4 µg/mL | TI ALL [6, 13]: 15.61 | GM Gram-negative bacteria (Gram-negative bacteria; geometric mean (GM) of MICs against Gram-negative bacteria): 11.8 µg/mL | TI Gram-negative bacteria (Gram-negative bacteria; [13]): 21.69 | GM Gram-positive bacteria (Gram-positive bacteria; geometric mean (GM) of MICs against Gram-positive bacteria): 25.6 µg/mL | TI Gram-positive bacteria (Gram-positive bacteria; [13]): 10 | MHC (murine erythrocytes): >128 µg/mL | time to completely kill E. tarda (E. tarda [7]; 2× or 4× MIC, MHB, 1 × 10^5 CFU/mL, 28°C): ≤ 6 h | ability to bind to LPS (BC probe displacement) (LPS): V112N6NH2 > GUON6NH2 > N6NH2 > DN6NH2 > N6PNH2 | penetration rate (PI-stained cells) [8]: 0.85–30.1% | morphological changes by SEM (E. tarda [9]): some protrusions were observed on the cell surfaces

CCn1cc(C(=O)O)c(=O)c2cc(F)c(N3CCNCC3)cc21 [norfloxacin, reference compound]
time of bacterial re-growth (E. tarda [7]; 2× MIC): 12 h | PAE (E. tarda [10]; 1× MIC): 2.65 h | PAE (E. tarda [10]; 2× MIC): 3.48 h | PAE (E. tarda [10]; 4× MIC): 3.12 h | ability to bind to LPS (BC probe displacement) (LPS): did not replace BC probe to bind to LPS | morphological changes by SEM (E. tarda [9]): no significant change in the bacterial cell structures | ultrastructure changes by TEM (E. tarda [9]): no significant change in bacterial cells | survival rate of mice (E. tarda [11]): 40% | decrease of total numbers of bacteria (E. tarda [12]; peritoneal fluid 24 h after treatment): 0.49 Log10 CFU | reduction of intracellular bacteria (E. tarda [12]; peritoneal fluid cells 24 h after treatment): 0.35 Log10 CFU
